Results on 36 compounds are retold here after patent US4983597A, “Beta-lactams as anticholesterolemic agents” (Merck & Co., Inc., priority 1989, dated 1991).

Structures are written as SMILES.

The first experiment concerns the target T1, HMG-CoA synthase (Rattus norvegicus, UniProt P17425).
T1 construct: The livers from male Charles River CD rats (225-350 g) were homogenized; from tissue; host or cells: rat liver (male Charles River CD rats), 100,000 x g supernatant, ammonium sulfate and DEAE-52 fraction
T1 sequence (P17425 1-520): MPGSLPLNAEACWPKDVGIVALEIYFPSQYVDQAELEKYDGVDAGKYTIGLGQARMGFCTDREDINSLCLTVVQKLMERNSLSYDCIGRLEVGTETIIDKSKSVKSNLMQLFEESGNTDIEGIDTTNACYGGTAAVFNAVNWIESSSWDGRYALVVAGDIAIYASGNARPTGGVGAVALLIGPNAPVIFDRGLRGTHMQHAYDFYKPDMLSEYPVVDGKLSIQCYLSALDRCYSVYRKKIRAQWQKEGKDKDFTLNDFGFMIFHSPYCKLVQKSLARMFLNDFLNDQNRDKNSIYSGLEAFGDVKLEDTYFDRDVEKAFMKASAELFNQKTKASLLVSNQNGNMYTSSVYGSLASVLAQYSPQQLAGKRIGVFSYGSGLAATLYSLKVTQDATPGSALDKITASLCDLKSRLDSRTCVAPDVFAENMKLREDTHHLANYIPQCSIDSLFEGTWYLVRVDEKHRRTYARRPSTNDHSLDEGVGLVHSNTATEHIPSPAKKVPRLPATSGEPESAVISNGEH
As to the kind of experiment: HMG-CoA Synthase Inhibition Assay. Format: biochemical. The following applies: Table I; rat liver enzyme, 1-[14C]-acetyl-CoA incorporation. Here is the method: The intrinisic HMG-CoA synthase inhibition activity of the compounds of this invention is measured by the standard in vitro protocol described below:
The livers from male Charles River CD rats (225-350 g) were homogenized in 0.25 M sucrose which was adjusted with phenylmethylsulfonylfluoride (PMSF) and N-p-tosyl-1-lysine chloromethyl ketone (TLCK) so that the final concentration of each was […], respectively. The homogenate was centrifuged at 15,000× g for 20 minutes, the supernatant filtered through a fine nylon screen to remove most of the fat layer and recentrifuged at 100,000× g for 1 hour. This supernatant was removed and 1 M potassium phosphate, dithiothreitol (DTT) and ethylene glycolbis(β-aminoethyl ether)-N,N,N',N'-tetraacetic acid (EGTA) added to give a final concentration of 0.1 M (pH 7.2), 0.5 mM and 0.1 mM, respectively. Solid ammonium sulfate was added to 50% saturation to the protein solution, it was centrifuged at 15,000× g and the supernatant discarded. This precipitated protein could be stored at -70° C. for at least one month with very little loss of activity. The ammonium sulfate precipitate was dissolved in an minimal amount of 0.06 M potassium phosphate buffer (pH 7.2) containing 0.5 mM dithiothreitol and 0.1 mM EGTA (referred to as 0.06 M phosphate buffer) and dialyzed overnight against 2 liters of the same buffer to remove the ammonium sulfate and to inactivate HMG-CoA lyase [Clinkenbeard, et al., J. Biol. Chem. 250, 3108-3116(1975)].
The dialyzed extract was added to a column of DEAE-52 (Whatman) which had been equilibrated with 0.06 M phosphate buffer (10 mg of protein in 1 ml bed volume of the resin). The DEAE-cellulose was eluted with 0.06 M phosphate buffer until the optical density at 280 nm was essentially zero. This fraction contained the β-ketoacetyl-CoA thiolase activity. The HMG-CoA synthase was eluted from the column with 0.1 M phosphate buffer (pH 7.2) containing 0.5 mM DTT and […] EGTA, and was virtually free of all thiolase activity. The protein was precipitated by the addition of ammonium sulfate to give 50% saturation. This solution was stirred for 10 minutes at 4° C. and the precipitate collected by centrifugation at 15,000 rpm for 10 minutes. The supernatant was discarded and the precipitate dissolved in a minimum of 0.06 M phosphate buffer, pH 7.2 (about 10 ml) and the enzyme stored at -80° C.
HMG-CoA Synthase Inhibition Assay
Enzyme protein (ca. 24 mg) was added to a solution containing […] Tris-HCl (pH 8.0), 11.7 μM MgCl2, 1.17 μM ethylenediaminetetraacetic acid (EDTA), 0.58 μM dithiothreitol, and the indicated concentrations of the test compound (added as a 2 mg/ml solution in dimethylsulfoxide). The incubation took place in a volume of 0.085 ml at 30° in a shaking water bath. After 5 minutes, […] of a solution containing acetoacetyl-CoA and 0.1 μCi of 1-[^14 C]-acetyl-CoA was added to give a final concentrations of 0.1 and 0.4 μM, respectively. The incubation was continued for 10 more minutes and the reaction stopped by the addition of […] of the assay mixture to 0.2 ml of 6N HCl in a glass scintillation vial. The vial was heated for 1 hour at 120° after which time 0.2 ml more of 6N HCl was again added to each vial and the heating continued for another hour. Following this, 1.0 ml of 0.9% saline was added to each vial and finally 10 ml of scintillation liquid. Radioactivity was determined in a Packard Tri-Carb liquid scintillation counter. Percent inhibition is calculated by the formula: [formula]
IC50 values were determined by plotting the log of the concentration of the test compound verses the percentage inhibition and fitting a straight line to the resulting data by using the least squares method.
The term IC50 denotes the concentration needed to halve the response being measured. With `CC[C@@H]1C(=O)N(S(=O)(=O)c2ccc(C)cc2)[C@@H]1COC(=O)c1cccc(NC(C)=O)c1` (relative stereo) [Table I u], 72 nM corresponded to half-maximal inhibition (IC50).

On to `CC[C@@H]1C(=O)N(S(=O)(=O)c2ccc(C)cc2)[C@@H]1COC(=O)c1cccc(N)c1` (relative stereo) [Table I v], for which it took 45 nM to reach half-maximal inhibition (IC50).

The compound `CC[C@@H]1C(=O)N(S(=O)(=O)c2ccc(C)cc2)[C@@H]1COC(=O)c1ccc(C(=O)OC(c2ccccc2)c2ccccc2)cc1` (relative stereo) [Table I w] had an IC50 of 62 nM.

`CC[C@@H]1C(=O)N(S(=O)(=O)c2ccc(C)cc2)[C@@H]1COC(=O)c1ccc(C(=O)O)cc1` (relative stereo) [Table I x] showed an IC50 of 350 nM.

For `CC[C@@H]1C(=O)N(S(=O)(=O)c2ccc(C)cc2)[C@@H]1COC(=O)c1ccc([N+](=O)[O-])cc1` (relative stereo) [Table I y], the IC50 came out at 28 nM.

For the compound `CCC[C@@H]1C(=O)N(S(=O)(=O)c2ccc(C)cc2)[C@@H]1COC(=O)c1ccc(OC)cc1` (relative stereo) [Table I z], the IC50 was 69.5 nM.

For `CC[C@@H]1C(=O)N(S(=O)(=O)c2ccc(C)cc2)[C@@H]1COC(=O)c1ccco1` [Table I gg], it took 11 nM to reach half-maximal inhibition (IC50).

In turn, `CC[C@@H]1C(=O)N(S(=O)(=O)c2ccc(C)cc2)[C@@H]1COC(=O)c1ccc(OC)cc1` [Table I i] had an IC50 of 30 nM. Compared with the last compound, the IC50 is about 2.7-fold higher.

On to `CC[C@H]1C(=O)N(S(=O)(=O)c2ccc(C)cc2)[C@H]1COC(=O)c1ccc(OC)cc1` [Table I j], for which the IC50 was determined as 200 nM.

Staying with this experiment, now noted: Table II; rat liver enzyme, 1-[14C]-acetyl-CoA incorporation.
For the compound `CC[C@@H]1C(=O)N(S(=O)(=O)c2ccc(C)cc2)[C@@H]1COC(=O)/C=C/c1ccc(OC)cc1` (relative stereo) [Table II a], the IC50 was determined as 9.5 nM.

With `CC[C@@H]1C(=O)N(S(=O)(=O)c2ccc(C)cc2)[C@@H]1COC(=O)/C=C/c1cccnc1` (relative stereo) [Table II h], the IC50 was 31 nM. This IC50 lies about 3.3-fold higher than the previous one.

On to `CC[C@@H]1C(=O)N(S(=O)(=O)c2ccc(C)cc2)[C@@H]1COC(=O)Cc1ccco1` (relative stereo) [Table II l], for which the half-inhibitory concentration (IC50) is 2400 nM.

`CC[C@@H]1C(=O)N(S(=O)(=O)c2ccc(C)cc2)[C@@H]1COC(=O)/C=C/c1ccco1` (relative stereo) [Table II m] gave an IC50 of 250 nM.

For `CC[C@@H]1C(=O)N(S(=O)(=O)c2ccc(C)cc2)[C@@H]1COC(=O)COc1ccccc1` (relative stereo) [Table II n], the IC50 stood at 24 nM.

Take `CCOc1ccc(CC(=O)OC[C@@H]2[C@H](CC)C(=O)N2S(=O)(=O)c2ccc(C)cc2)cc1C` (relative stereo) [Table II o]: the IC50 was 2.1 nM.

Consider `CC[C@@H]1C(=O)N(S(=O)(=O)c2ccc(C)cc2)[C@@H]1COC(=O)Cc1ccccn1` (relative stereo) [Table II p], for which the half-maximal inhibitory concentration (IC50) is 10 nM. This IC50 is about 4.8-fold higher than that of the compound before.

In turn, `CC[C@H]1C(=O)N(S(=O)(=O)c2ccc(C)cc2)[C@H]1COC(=O)CSc1ccccc1` (relative stereo) [Table II q] returned an IC50 of 42 nM.

The compound `CCOc1ccc(CC(=O)OC[C@H]2[C@@H](CC)C(=O)N2S(=O)(=O)c2ccc(C)cc2)cc1` (relative stereo) [Table II r] gave an IC50 of 22 nM. This IC50 is about 1.9-fold lower than that of the compound before.

In the case of `CC[C@H]1C(=O)N(S(=O)(=O)c2ccc(C)cc2)[C@H]1COC(=O)Cc1cc(OC)c(OC)c(OC)c1` (relative stereo) [Table II s], half-maximal inhibition (IC50) required 20 nM.

`CC[C@H]1C(=O)N(S(=O)(=O)c2ccc(C)cc2)[C@H]1COC(=O)/C=C/c1cc(OC)c(OC)c(OC)c1` (relative stereo) [Table II t] yielded an IC50 of 38 nM.

In turn, `CCCOc1c(Br)cc(/C=C/C(=O)OC[C@@H]2[C@H](CC)C(=O)N2S(=O)(=O)c2ccc(C)cc2)cc1OC` (relative stereo) [Table II u] had an IC50 of 90 nM.

`CC[C@H]1C(=O)N(S(=O)(=O)c2ccc(C)cc2)[C@H]1COC(=O)Nc1ccc(C)cc1` (relative stereo) [Table II v]: the IC50 was 52 nM. This IC50 is about 1.7-fold lower than that of the compound before.

The compound `CC[C@H]1C(=O)N(S(=O)(=O)c2ccc(C)cc2)[C@H]1COC(=O)NC1CCCCC1` (relative stereo) [Table II w] gave an IC50 of 54 nM.

In turn, `CC[C@H]1C(=O)N(S(=O)(=O)c2ccc(C)cc2)[C@H]1COC(=O)Nc1ccc(C(F)(F)F)cc1` (relative stereo) [Table II x] registered a 50% inhibitory concentration (IC50) of 260 nM.

On to `CC[C@H]1C(=O)N(S(=O)(=O)c2ccc(C)cc2)[C@H]1COC(=O)Cc1ccc(OC)c(OC)c1` (relative stereo) [Table II y], for which half-maximal inhibition (IC50) was put at 30 nM.

In turn, `CC[C@H]1C(=O)N(S(=O)(=O)c2ccc(C)cc2)[C@H]1COC(=O)/C=C/c1ccc(OC)c(OC)n1` (relative stereo) [Table II z] had an IC50 of 27 nM.

Consider `CC[C@@H]1C(=O)N(S(=O)(=O)c2ccc(C)cc2)[C@@H]1COC(=O)[C@H](OC)c1ccccc1` [Table II d, cis-(3S), (4S)-3-Ethyl-4-[(R)-α-methoxyphenylacetoxyl]methyl-N-toluenesulfonyl-2-azetidinone], for which half-maximal inhibition (IC50) was put at 18 nM.

The experiment is the same for the next values; noted with them: Table III; rat liver enzyme, 1-[14C]-acetyl-CoA incorporation.
As for `CC[C@H]1C(=O)N(S(=O)(=O)c2ccc(C)cc2)[C@H]1COS(=O)(=O)c1ccc(C)cc1` (relative stereo) [Table III], the half-maximal inhibitory concentration (IC50) turned out to be 110 nM.

Still in this experiment, the particulars now being: Table IV; rat liver enzyme, 1-[14C]-acetyl-CoA incorporation.
`CCC[C@H]1C(=O)N(S(=O)(=O)c2ccc(C)cc2)[C@@H]1C=Cc1ccccc1` (relative stereo) [Table IV a] registered an IC50 of 1500 nM.

`CCC[C@H]1C(=O)N(S(=O)(=O)c2ccc(C)cc2)[C@H]1C=Cc1ccccc1` (relative stereo) [Table IV b]: the 50% inhibitory concentration (IC50) was 2200 nM. This IC50 and that of the compound before are within 1.5-fold of each other.

In the case of `Cc1ccc(S(=O)(=O)N2C(=O)[C@H](CO)[C@H]2C=Cc2ccccc2)cc1` (relative stereo) [Table IV c], the IC50 came to 1100 nM.

For the compound `Cc1ccc(S(=O)(=O)N2C(=O)[C@H](CO)[C@@H]2C=Cc2ccccc2)cc1` (relative stereo) [Table IV d], the IC50 was 1100 nM. This counts as single-digit micromolar.

On to `CC[C@@H]1C(=O)N(S(=O)(=O)c2ccc(C)cc2)[C@H]1C(C)=Cc1ccccc1` (relative stereo) [Table IV e], for which the IC50 amounted to 50000 nM.

In the case of `CC[C@@H]1C(=O)N(S(=O)(=O)c2ccc(C)cc2)[C@@H]1C(C)=Cc1ccccc1` (relative stereo) [Table IV f], the IC50 stood at 430 nM. This IC50 is about 120-fold lower than that of the compound before.

Staying with this experiment, now noted: Table V; rat liver enzyme, 1-[14C]-acetyl-CoA incorporation.
`CC[C@H]1C(=O)N(S(=O)(=O)c2ccc(C)cc2)[C@H]1CNc1ccc(C(=O)O)cc1` (relative stereo) [Table V a, (±) cis-3-Ethyl-4-hydroxycarbonylphenylaminomethyl-N-toluenesulfonyl-2-azetidinone] yielded an IC50 of 9900 nM.

As to `CC[C@H]1C(=O)N(S(=O)(=O)c2ccc(C)cc2)[C@H]1CCc1ccccc1` (relative stereo) [Table V b], the IC50 was determined as 86 nM. Against the preceding compound, the IC50 is about 120-fold lower.
